pIC50: −log10 of the molar value. In brackets after ≈: the same amount, converted by molar mass.
Experiments:
[1] = molecular target: Voltage-gated inwardly rectifying potassium channel KCNH2 (Homo sapiens, UniProt Q12809);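 note: hERG channel blockade measured by electrophysiology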
physchem [2] = settings: octanol/water
physchem [3] = settings: phosphate buffer
in vitro [4] = settings: PAMPA
MDR1 = assay: in vitro; settings: dog, MDCK-MDR1
[5] = human, microsomes, 0.5 h, 0.5 µM
[6] = rat, microsomes, 0.5 h, 0.5 µM
[7] = molecular target: Sodium channel protein type 5 subunit alpha (Homo sapiens, UniProt Q14524)
in vivo [8] = settings: Sprague-Dawley, rat, po
in vitro [9] = settings: dog, MDCK
in vivo [10] = settings: Sprague-Dawley, rat, iv
in vivo [11] = settings: Sprague-Dawley, rat, po; remark: listed apart in the source
[12] = rat, in vivo, po
[13] = molecular target: Sodium channel protein type 10 subunit alpha (Homo sapiens, UniProt Q9Y5Y9); assay: Inhibition of human Nav1.8 by FRET based membrane potential assay
[14] = molecular target: Sodium channel protein type 2 subunit alpha (Homo sapiens, UniProt Q99250); assay: Inhibition of recombinant human Nav1.2 expressed in HEK293 cells incubated for 3 mins by FRET based membrane potential assay; format: cell-based
Rattus norvegicus [15] = assay: Antiallodynic activity in Sprague-Dawley rat model of L5/L6 spinal nerve ligation-induced neuropathic pain assessed as maximal possible effect at 10 mg/kg, po; format: functional
Rattus norvegicus [16] = assay: Antiallodynic activity in Sprague-Dawley rat model of L5/L6 spinal nerve ligation-induced neuropathic pain assessed as maximal possible effect at 30 mg/kg, po; format: functional
Rattus norvegicus [17] = assay: Antiallodynic activity in Sprague-Dawley rat model of L5/L6 spinal nerve ligation-induced neuropathic pain assessed as maximal possible effect at 100 mg/kg, po; format: functional
[18] = Ratio of free drug concentration in brain to plasma of rat; format: ADME, cell-free; settings: brain and plasma
[19] = Drug concentration in plasma of Sprague-Dawley rat model of L5/L6 spinal nerve ligation-induced neuropathic pain at 10 mg/kg, po by LC/MS analysis; format: ADME, organism-based; settings: in vivo
[20] = Drug concentration in plasma of Sprague-Dawley rat model of L5/L6 spinal nerve ligation-induced neuropathic pain at 30 mg/kg, po by LC/MS analysis; format: ADME, organism-based; settings: in vivo
[21] = Drug concentration in plasma of Sprague-Dawley rat model of L5/L6 spinal nerve ligation-induced neuropathic pain at 100 mg/kg, po by LC/MS analysis; format: ADME, organism-based; settings: in vivo
[22] = Drug concentration in brain of Sprague-Dawley rat model of L5/L6 spinal nerve ligation-induced neuropathic pain at 10 mg/kg, po by LC/MS analysis; format: ADME, organism-based; settings: in vivo
[23] = Drug concentration in brain of Sprague-Dawley rat model of L5/L6 spinal nerve ligation-induced neuropathic pain at 30 mg/kg, po by LC/MS analysis; format: ADME, organism-based; settings: in vivo
[24] = Drug concentration in brain of Sprague-Dawley rat model of L5/L6 spinal nerve ligation-induced neuropathic pain at 100 mg/kg, po by LC/MS analysis; format: ADME, organism-based; settings: in vivo
[25] = molecular target: Sodium channel protein type 9 subunit alpha (Homo sapiens, UniProt Q15858)
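Throughout, for logD: distribution coefficient quantified using high-throughput LC-MS.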
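Throughout, for solubility: determined using a high-throughput solubility method.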

Sequence of Voltage-gated inwardly rectifying potassium channel KCNH2 (Q12809 whole entry): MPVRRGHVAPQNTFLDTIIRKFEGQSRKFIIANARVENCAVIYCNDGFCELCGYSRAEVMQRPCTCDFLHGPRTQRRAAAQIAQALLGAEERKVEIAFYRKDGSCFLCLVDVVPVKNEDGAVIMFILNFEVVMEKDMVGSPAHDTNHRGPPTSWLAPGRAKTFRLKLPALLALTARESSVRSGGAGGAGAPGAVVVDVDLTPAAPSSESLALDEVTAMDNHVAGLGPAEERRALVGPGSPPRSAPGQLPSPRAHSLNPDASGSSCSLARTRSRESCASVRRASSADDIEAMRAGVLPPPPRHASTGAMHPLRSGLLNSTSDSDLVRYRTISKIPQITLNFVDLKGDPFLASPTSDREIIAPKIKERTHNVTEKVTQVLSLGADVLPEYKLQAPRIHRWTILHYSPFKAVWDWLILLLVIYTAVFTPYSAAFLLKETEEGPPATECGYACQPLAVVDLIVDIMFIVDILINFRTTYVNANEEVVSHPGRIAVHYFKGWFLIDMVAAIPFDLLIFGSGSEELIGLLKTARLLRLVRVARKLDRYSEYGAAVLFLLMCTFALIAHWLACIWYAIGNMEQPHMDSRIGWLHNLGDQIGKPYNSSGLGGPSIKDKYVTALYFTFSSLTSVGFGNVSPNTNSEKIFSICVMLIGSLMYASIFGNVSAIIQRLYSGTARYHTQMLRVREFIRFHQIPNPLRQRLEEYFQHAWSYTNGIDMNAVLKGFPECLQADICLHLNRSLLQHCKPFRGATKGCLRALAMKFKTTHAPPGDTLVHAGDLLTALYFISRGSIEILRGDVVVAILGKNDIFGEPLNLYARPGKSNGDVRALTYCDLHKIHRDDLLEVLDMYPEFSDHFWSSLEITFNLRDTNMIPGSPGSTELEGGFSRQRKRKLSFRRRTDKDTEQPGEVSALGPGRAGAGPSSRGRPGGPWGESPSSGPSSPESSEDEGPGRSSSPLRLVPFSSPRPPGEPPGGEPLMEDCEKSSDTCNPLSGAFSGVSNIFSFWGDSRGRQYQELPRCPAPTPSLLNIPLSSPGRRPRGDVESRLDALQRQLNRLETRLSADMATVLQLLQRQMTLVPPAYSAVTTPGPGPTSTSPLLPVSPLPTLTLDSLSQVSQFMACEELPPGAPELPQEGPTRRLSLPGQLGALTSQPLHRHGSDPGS
Sequence of Sodium channel protein type 5 subunit alpha (Q14524 whole entry): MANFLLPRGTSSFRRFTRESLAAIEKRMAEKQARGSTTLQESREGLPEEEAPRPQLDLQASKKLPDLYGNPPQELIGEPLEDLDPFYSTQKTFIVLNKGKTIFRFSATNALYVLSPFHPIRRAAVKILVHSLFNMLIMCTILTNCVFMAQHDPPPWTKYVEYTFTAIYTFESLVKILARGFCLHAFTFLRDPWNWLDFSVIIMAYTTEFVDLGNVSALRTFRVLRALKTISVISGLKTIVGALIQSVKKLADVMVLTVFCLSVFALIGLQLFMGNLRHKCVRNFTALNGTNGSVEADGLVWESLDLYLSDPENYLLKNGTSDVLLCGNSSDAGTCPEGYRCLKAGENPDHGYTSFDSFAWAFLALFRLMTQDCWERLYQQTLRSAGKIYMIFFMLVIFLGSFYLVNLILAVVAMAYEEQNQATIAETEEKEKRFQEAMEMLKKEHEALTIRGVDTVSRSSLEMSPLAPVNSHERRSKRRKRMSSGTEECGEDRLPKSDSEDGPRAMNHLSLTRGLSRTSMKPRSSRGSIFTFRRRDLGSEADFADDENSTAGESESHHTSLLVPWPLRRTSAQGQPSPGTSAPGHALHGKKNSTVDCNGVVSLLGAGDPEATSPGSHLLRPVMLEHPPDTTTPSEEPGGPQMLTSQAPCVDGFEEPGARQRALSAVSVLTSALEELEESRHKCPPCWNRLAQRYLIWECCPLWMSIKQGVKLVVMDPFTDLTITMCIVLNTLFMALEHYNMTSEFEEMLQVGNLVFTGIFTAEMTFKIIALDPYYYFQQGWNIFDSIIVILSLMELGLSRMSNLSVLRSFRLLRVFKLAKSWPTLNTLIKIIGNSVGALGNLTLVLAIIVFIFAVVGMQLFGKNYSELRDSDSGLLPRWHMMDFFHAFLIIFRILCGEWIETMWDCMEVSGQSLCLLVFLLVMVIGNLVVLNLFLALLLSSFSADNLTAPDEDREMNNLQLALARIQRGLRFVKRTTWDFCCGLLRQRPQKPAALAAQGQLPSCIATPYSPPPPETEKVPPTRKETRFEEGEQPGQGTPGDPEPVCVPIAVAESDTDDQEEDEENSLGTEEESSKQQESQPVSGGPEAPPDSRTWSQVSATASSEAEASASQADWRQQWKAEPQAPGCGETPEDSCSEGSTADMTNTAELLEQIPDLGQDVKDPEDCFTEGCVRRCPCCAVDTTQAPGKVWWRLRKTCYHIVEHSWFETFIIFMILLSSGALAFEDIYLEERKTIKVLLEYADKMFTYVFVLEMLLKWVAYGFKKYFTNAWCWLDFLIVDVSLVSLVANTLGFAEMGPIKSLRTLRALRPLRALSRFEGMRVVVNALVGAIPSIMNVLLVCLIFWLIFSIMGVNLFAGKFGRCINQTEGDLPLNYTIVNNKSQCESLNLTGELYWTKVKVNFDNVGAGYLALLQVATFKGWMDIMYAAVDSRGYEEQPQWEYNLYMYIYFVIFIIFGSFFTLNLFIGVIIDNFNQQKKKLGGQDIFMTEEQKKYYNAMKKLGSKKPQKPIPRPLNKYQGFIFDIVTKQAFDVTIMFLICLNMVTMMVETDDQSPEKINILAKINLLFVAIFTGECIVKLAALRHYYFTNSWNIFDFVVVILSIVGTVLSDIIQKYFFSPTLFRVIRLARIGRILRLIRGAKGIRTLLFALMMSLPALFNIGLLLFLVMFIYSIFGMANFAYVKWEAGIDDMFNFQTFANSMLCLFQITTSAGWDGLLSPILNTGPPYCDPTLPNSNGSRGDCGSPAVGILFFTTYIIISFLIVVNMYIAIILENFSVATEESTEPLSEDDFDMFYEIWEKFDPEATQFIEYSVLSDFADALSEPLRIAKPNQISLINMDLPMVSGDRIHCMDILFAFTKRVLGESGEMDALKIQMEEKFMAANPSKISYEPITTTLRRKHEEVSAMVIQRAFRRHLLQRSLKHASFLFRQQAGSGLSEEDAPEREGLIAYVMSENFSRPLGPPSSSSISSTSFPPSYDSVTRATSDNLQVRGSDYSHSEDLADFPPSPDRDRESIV
Sequence of Sodium channel protein type 9 subunit alpha (Q15858 whole entry, looked up): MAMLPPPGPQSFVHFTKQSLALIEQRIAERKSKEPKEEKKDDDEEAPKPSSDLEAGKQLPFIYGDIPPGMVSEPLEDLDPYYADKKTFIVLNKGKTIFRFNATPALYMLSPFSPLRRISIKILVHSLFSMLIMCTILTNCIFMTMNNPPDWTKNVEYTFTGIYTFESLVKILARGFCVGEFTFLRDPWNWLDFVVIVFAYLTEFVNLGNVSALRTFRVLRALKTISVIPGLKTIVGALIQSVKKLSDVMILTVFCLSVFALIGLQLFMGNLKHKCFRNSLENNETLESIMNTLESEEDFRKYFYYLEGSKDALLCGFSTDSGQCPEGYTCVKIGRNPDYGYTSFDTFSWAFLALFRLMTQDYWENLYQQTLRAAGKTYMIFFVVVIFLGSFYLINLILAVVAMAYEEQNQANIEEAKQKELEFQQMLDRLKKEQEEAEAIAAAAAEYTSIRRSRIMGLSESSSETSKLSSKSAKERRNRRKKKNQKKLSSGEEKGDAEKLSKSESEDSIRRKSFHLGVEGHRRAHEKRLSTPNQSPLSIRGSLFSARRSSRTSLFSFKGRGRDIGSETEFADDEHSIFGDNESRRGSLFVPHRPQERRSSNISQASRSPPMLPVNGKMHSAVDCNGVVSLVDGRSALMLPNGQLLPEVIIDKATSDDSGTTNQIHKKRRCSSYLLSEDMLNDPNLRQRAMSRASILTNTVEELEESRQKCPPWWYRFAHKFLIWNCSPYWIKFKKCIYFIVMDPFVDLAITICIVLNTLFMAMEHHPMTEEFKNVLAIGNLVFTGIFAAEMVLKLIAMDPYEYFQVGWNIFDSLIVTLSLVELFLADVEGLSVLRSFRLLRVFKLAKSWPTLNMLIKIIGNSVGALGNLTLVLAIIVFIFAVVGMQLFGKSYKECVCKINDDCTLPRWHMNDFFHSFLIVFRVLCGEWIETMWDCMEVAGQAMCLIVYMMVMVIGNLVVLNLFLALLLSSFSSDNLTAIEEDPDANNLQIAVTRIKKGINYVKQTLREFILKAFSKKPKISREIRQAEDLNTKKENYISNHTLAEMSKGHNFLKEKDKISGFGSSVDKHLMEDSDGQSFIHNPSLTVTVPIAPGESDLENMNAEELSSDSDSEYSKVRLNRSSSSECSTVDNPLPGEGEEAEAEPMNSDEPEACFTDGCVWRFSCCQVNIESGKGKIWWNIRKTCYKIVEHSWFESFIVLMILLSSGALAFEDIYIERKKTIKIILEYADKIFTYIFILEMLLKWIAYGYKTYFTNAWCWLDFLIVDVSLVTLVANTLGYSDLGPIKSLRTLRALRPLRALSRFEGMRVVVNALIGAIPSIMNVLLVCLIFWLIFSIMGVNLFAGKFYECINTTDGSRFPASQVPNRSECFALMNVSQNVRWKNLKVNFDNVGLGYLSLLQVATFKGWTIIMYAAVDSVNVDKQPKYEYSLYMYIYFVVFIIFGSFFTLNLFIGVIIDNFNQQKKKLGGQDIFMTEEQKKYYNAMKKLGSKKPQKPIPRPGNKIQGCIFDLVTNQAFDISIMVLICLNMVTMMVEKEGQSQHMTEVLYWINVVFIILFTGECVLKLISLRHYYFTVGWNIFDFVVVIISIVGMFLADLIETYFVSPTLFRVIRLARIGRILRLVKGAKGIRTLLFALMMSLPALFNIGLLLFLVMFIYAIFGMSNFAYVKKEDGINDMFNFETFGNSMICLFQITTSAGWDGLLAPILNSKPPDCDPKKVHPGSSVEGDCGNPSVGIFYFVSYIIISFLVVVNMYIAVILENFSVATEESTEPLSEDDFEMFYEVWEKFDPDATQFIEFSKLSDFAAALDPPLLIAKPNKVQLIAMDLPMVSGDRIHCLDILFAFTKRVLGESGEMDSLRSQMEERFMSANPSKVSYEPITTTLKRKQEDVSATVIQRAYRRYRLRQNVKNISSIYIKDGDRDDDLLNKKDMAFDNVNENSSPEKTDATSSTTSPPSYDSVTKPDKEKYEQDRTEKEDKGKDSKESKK

| logD (physchem [2]) | solubility (physchem [3]) | Papp (in vitro [4]) | CLH [5] | CLH [6] | bioavailability (in vivo [8]) | Papp (in vitro [9]) | SMILES | pIC50 [1] | pIC50 [7] | further results |
| --- | --- | --- | --- | --- | --- | --- | --- | --- | --- | --- |
| 3.8 | 150 µM (≈ 69.8 µg/mL) | 0.8 ×10⁻⁶ cm/s | – | – | – | – | O=C(c1ccc2cc(Oc3ccc(S(=O)(=O)C(F)(F)F)cc3)ccc2n1)N1CCNCC1 | 5.37 | – | efflux ratio (MDR1): 45.5 |
| – | – | 16.1 ×10⁻⁶ cm/s | 33 mL/min/kg | 100 mL/min/kg | – | – | N#Cc1ccc(-c2ccc3c(ccc(=O)n3CC(=O)N3CCCCC3)c2)cc1 | 4.77 | – | – |
| – | 5 µM (≈ 2.12 µg/mL) | 12.1 ×10⁻⁶ cm/s | – | – | 82% | – | O=C(NC1CC(F)(F)C1)c1ccc2cc(Oc3ccc(C(F)(F)F)cn3)ccc2n1 | – | 4.48 | – |
| 4 | 140 µM (≈ 56.2 µg/mL) | 2.1 ×10⁻⁶ cm/s | – | – | – | – | O=C(c1ccc2cc(Oc3ccc(C(F)(F)F)cc3)ccc2n1)N1CCNCC1 | 5.23 | – | efflux ratio (MDR1): 3.7 |
| 3.2 | 23 µM (≈ 10.3 µg/mL) | – | < 56.7 mL/min/kg | < 61.7 mL/min/kg | – | 44.1 ×10⁻⁶ cm/s | O=C1CN(C(=O)COc2ccc3cc(Oc4ccc(C(F)(F)F)cn4)ccc3n2)CCN1 | – | – | – |
| – | 46 µM (≈ 22.3 µg/mL) | – | – | – | – | 24.6 ×10⁻⁶ cm/s | O=C(c1ccc2cc(Oc3ccc(C(F)(F)F)cn3)ccc2n1)N1CCN(CC(F)(F)F)CC1 | – | 4.48 | – |
| 2.1 | 138 µM (≈ 55.7 µg/mL) | 1.5 ×10⁻⁶ cm/s | – | – | – | – | O=C(c1ccc2cc(Oc3ncc(C(F)(F)F)cn3)ccc2n1)N1CCNCC1 | – | – | – |
| – | 5 µM (≈ 2.03 µg/mL) | 16.7 ×10⁻⁶ cm/s | – | – | – | – | O=C(NC1CC(F)C1)c1ccc2cc(Oc3ccc(C(F)(F)F)cn3)ccc2n1 (stereo not drawn) | – | 4.48 | – |
| 3.4 | – | – | 50 mL/min/kg | < 50 mL/min/kg | – | 30.1 ×10⁻⁶ cm/s | N#Cc1ccc(Oc2ccc3nc(OCC(=O)N4CCOCC4)ccc3c2)cc1 | – | – | – |
| – | 5 µM (≈ 2.09 µg/mL) | 32.7 ×10⁻⁶ cm/s | – | – | – | – | O=C(N[C@@H]1CCOC1=O)c1ccc2cc(Oc3ccc(C(F)(F)F)cn3)ccc2n1 | – | 4.48 | – |
| – | 5 µM (≈ 1.94 µg/mL) | 3.4 ×10⁻⁶ cm/s | – | – | – | – | O=C(NC1CCC1)c1ccc2cc(Oc3ccc(C(F)(F)F)cn3)ccc2n1 | – | 4.50 | – |
| – | 55 µM (≈ 22.3 µg/mL) | 31.6 ×10⁻⁶ cm/s | – | – | 104% | – | O=C(c1ccc2cc(Oc3ccc(C(F)(F)F)cn3)ccc2n1)N1CC[C@H](F)C1 | – | 4.48 | Vdss [12]: 6.47 L/kg; clearance (in vivo [10]): 12.8 mL/min/kg; half-life (in vivo [11]): 3.67 h |

Continued, compound first:

| SMILES | logD (physchem [2]) | solubility (physchem [3]) | Papp (in vitro [4]) | CLH [5] | CLH [6] | bioavailability (in vivo [8]) | Papp (in vitro [9]) | pIC50 [1] | pIC50 [7] | further results |
| --- | --- | --- | --- | --- | --- | --- | --- | --- | --- | --- |
| CN1CCN(C(=O)COc2ccc3cc(Oc4ccc(C(F)(F)F)cn4)ccc3n2)CC1 | – | 200 µM (≈ 89.3 µg/mL) | – | 100 mL/min/kg | 967 mL/min/kg | – | – | – | – | – |
| O=C1CN(C(=O)COc2ccc3cc(Oc4ccccn4)ccc3n2)CCN1 | – | 200 µM (≈ 75.7 µg/mL) | – | 65 mL/min/kg | < 65 mL/min/kg | – | 22 ×10⁻⁶ cm/s | 4.52 | – | – |
| O=C(c1ccc2cc(Oc3cc(C(F)(F)F)ccn3)ccc2n1)N1CCNCC1 | 3.4 | 200 µM (≈ 80.5 µg/mL) | – | – | – | 91% | 49 ×10⁻⁶ cm/s | 5.14 | – | clearance (in vivo [10]): 115 mL/min/kg |
| O=C(COc1ccc2cc(Oc3ccc(C(F)(F)F)cn3)ccc2n1)N1CCCCC1 | – | 48 µM (≈ 20.7 µg/mL) | – | 233 mL/min/kg | 917 mL/min/kg | – | 38.6 ×10⁻⁶ cm/s | – | – | – |
| O=C(N[C@H]1C[C@@H](O)C1)c1ccc2cc(Oc3ccc(C(F)(F)F)cn3)ccc2n1 | – | 10 µM (≈ 4.03 µg/mL) | 19.5 ×10⁻⁶ cm/s | – | – | 23% | – | – | 4.48 | clearance (in vivo [10]): 60.3 mL/min/kg |
| CS(=O)(=O)C1CN(C(=O)c2ccc3cc(Oc4ccc(C(F)(F)F)cn4)ccc3n2)C1 | – | 18 µM (≈ 8.13 µg/mL) | 21.5 ×10⁻⁶ cm/s | – | – | 126% | – | – | – | half-life (in vivo [11]): 3.4 h |
| N#Cc1ccc(Oc2ccc3nc(OCC(=O)N4CCNC(=O)C4)ccc3c2)cc1 | 3.1 | 141 µM (≈ 56.7 µg/mL) | – | < 33 mL/min/kg | < 50 mL/min/kg | – | 32.1 ×10⁻⁶ cm/s | – | – | – |
| N#Cc1ccc(Oc2ccc3c(ccc(=O)n3CCN3CCCCC3)c2)cc1 | 3.4 | 140 µM (≈ 52.3 µg/mL) | 3.7 ×10⁻⁶ cm/s | 150 mL/min/kg | 633 mL/min/kg | 17% | – | > 6.00 | 5.80 | pIC50 [13]: 7.10; pIC50 [14]: 5.47; MPE (Rattus norvegicus [15]): 54%; MPE (Rattus norvegicus [16]): 53%; MPE (Rattus norvegicus [17]): 89%; Kp uu [18]: 0.45; Cp [19]: 290 ng/mL; Cp [20]: 470 ng/mL; Cp [21]: 1270 ng/mL; Ct [22]: 0.56 µg/mL; Ct [23]: 1.05 µg/mL; Ct [24]: 3.38 µg/mL; pIC50 [25]: 5.64; clearance (in vivo [10]): 52.7 mL/min/kg |

— ChEMBL document CHEMBL5143671, “Discovery of (R)-(3-fluoropyrrolidin-1-yl)(6-((5-(trifluoromethyl)pyridin-2-yl)oxy)quinolin-2-yl)methanone (ABBV-318) and analogs as small molecule Nav1.7/ Nav1.8 blockers for the treatment of pain” (Bioorg Med Chem, 2022)
